Experiment [1] concerns the target BTK enzyme (recombinant full-length BTK, hBTK) (Homo sapiens (Human), UniProt Q06187). Nature of the experiment: Btk enzyme activity assay, LANCE TR-FRET. In kind it is biochemical. As to conditions: 50 pM hBTK, 2 μM biotin-A5-peptide, 25 μM ATP; 60 minute compound & enzyme incubation; read-out: BTK binding IC50. As to the method:
Btk Enzyme Activity Assay Methods
BTK enzymatic activity was determined with the LANCE (Lanthanide Chelate Excite) TR-FRET (Time-resolved fluorescence resonance energy transfer) assay. […] After 60 minutes incubation with detection reagents, reaction plates were read on a PerkinElmer EnVision plate reader using standard TR-FRET protocol.

The next experiment concerns HeLa cells. Nature of the experiment: [3H] Adenosine uptake assay. To be noted: Homo sapiens, HeLa, accumulation of tritiated adenosine into HeLa cells; compound concentration range 10 μM to 0.032 nM; read-out: ADU inhibition IC50 (adenosine uptake inhibition potency). The experiment is classed as cell-based. In outline:
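HeLa cells in HBSS + 5% FBS preincubated 30 min at ambient temperature with compound (0.25% DMSO), then [3H]adenosine (500 nM stock) added for 60 min. Uptake measured by scintillation proximity counting; IC50 from 4-parameter fit of counts vs log concentration.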

The values below come from patent US10087188B2, “Benzamide imidazopyrazine Btk inhibitors” (MERCK SHARP & DOHME CORP., priority 2014, dated 2018).

Sequence of BTK enzyme (recombinant full-length BTK, hBTK) (Q06187 whole entry): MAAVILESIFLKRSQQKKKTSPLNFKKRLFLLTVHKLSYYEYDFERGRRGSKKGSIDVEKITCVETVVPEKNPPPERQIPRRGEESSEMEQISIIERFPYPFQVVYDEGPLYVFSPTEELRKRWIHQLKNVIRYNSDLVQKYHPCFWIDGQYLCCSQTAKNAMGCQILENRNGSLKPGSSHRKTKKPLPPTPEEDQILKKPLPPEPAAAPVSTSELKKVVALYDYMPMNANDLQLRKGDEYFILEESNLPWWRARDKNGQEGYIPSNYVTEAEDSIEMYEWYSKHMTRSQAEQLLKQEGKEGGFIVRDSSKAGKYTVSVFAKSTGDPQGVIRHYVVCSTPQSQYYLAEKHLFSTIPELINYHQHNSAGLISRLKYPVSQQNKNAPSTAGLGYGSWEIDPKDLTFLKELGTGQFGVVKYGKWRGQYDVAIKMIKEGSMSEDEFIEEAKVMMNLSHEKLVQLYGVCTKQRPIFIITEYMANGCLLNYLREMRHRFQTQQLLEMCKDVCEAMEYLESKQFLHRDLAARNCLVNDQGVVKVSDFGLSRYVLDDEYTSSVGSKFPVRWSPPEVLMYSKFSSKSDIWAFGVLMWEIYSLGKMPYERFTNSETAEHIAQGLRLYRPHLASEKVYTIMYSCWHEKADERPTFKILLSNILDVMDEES

For orientation: IC50 means the midpoint of a concentration-inhibition curve. For the molecule `CC1(C(=O)O)CCC(N2CCC[C@@H](c3nc(-c4ccc(C(=O)Nc5cc(C(F)(F)F)ccn5)cc4F)c4c(N)nccn34)C2)CC1` (stereo partly drawn) [Example 182, 4-{(3R)-3-[8-amino-1-(2-fluoro-4-{[4-(trifluoromethyl)pyridin-2-yl]carbamoyl}phenyl)imidazo [1,5-a]pyrazin-3-yl]piperidin-1-yl}-1-methylcyclohexanecarboxylic acid], the IC50 in experiment [1] came to 0.0019 µM; in the experiment on HeLa cells, 0.179 µM.
The corresponding values for `CC(C)(C(=O)O)N1CCO[C@@H](c2nc(-c3ccc(C(=O)Nc4cc(C(F)(F)F)ccn4)cc3)c3c(N)nccn23)C1` [Example 183, 2-{(2R)-2-[8-amino-1-(4-{[4-(trifluoromethyl)pyridin-2-yl]carbamoyl}phenyl)imidazo [1,5-a]pyrazin-3-yl]morpholin-4-yl}-2-methylpropanoic acid] are 0.0132 µM and 0.665 µM.
In the same order, the values of `COc1cc(C(=O)Nc2cc(C(F)(F)F)ccn2)ccc1-c1nc([C@H]2CN(C(C)(C)C(=O)O)CCO2)n2ccnc(N)c12` [Example 184, 2-{(2R)-2-[8-amino-1-(2-methoxy-4-{[4-(trifluoromethyl)pyridin-2-yl]carbamoyl}phenyl)imidazo [1,5-a]pyrazin-3-yl]morpholin-4-yl}-2-methylpropanoic acid] are 0.0612 µM and 5.41 µM.
Consider `COc1cc(C(=O)Nc2cc(C(F)(F)F)ccn2)ccc1-c1nc([C@H]2CN(C3CC(C(=O)O)C3)[C@@H](C)CO2)n2ccnc(N)c12` (stereo partly drawn) [Example 185, 3-{(2R,5S)-2-[8-amino-1-(2-methoxy-4-{[4-(trifluoromethyl)pyridin-2-yl]carbamoyl}phenyl)imidazo [1,5-a]pyrazin-3-yl]-5-methylmorpholin-4-yl}cyclobutanecarboxylic acid], for which the IC50 in experiment [1] is 0.0032 µM; in the experiment with HeLa cells, 5.86 µM.
The corresponding values for `CC(C)(C(=O)O)N1CCC[C@@H](c2nc(-c3ccc(C(=O)Nc4cc(C(F)(F)F)ccn4)cc3F)c3c(N)nccn23)C1` [Example 186, 2-{(3R)-3-[8-amino-1-(2-fluoro-4-{[4-(trifluoromethyl)pyridin-2-yl]carbamoyl}phenyl)imidazo [1,5-a]pyrazin-3-yl]piperidin-1-yl}-2-methylpropanoic acid] are 0.0094 µM and 1.24 µM.
The corresponding values for `CCOc1cc(C(=O)Nc2cc(C(F)(F)F)ccn2)ccc1-c1nc([C@H]2CN(C3CCC(C)(C(=O)O)CC3)[C@@H](C)CO2)n2c(Cl)cnc(N)c12` (stereo partly drawn) [Example 189, 4-{(2R,5S)-2-[8-amino-5-chloro-1-(2-ethoxy-4-{[4-(trifluoromethyl)pyridin-2-yl]carbamoyl}phenyl)imidazo [1,5-a]pyrazin-3-yl]-5-methylmorpholin-4-yl}-1-methylcyclohexanecarboxylic acid] are 0.0019 µM and 4.84 µM.
The corresponding values for `C[C@H]1CO[C@@H](c2nc(-c3ccc(C(=O)Nc4cc(C(F)(F)F)ccn4)cc3)c3c(N)nccn23)CN1[C@H]1CC[C@](C)(C(=O)O)CC1` [Example 191, trans-4-{(2R,5S)-2-[8-amino-1-(4-{[4-(trifluoromethyl)pyridin-2-yl]carbamoyl}phenyl)imidazo [1,5-a]pyrazin-3-yl]-5-methylmorpholin-4-yl}-1-methylcyclohexanecarboxylic acid] are 0.00065 µM and 1.19 µM.
In the case of `C[C@H]1CO[C@@H](c2nc(-c3ccc(C(=O)Nc4cc(C(F)(F)F)ccn4)cc3)c3c(N)nccn23)CN1[C@H]1CC[C@@](C)(C(=O)O)CC1` [Example 192, cis-4-{(2R,5S)-2-[8-amino-1-(4-{[4-(trifluoromethyl)pyridin-2-yl]carbamoyl}phenyl)imidazo [1,5-a]pyrazin-3-yl]-5-methylmorpholin-4-yl}-1-methylcyclohexanecarboxylic acid], the IC50 in experiment [1] is 0.0028 µM; in the experiment on HeLa cells it was 3.08 µM.
In the same order, the values of `C[C@H]1CO[C@@H](c2nc(-c3ccc(C(=O)Nc4cc(C(F)(F)F)ccn4)cc3F)c3c(N)nccn23)CN1[C@H]1CC[C@](C)(C(=O)O)CC1` [Example 193, trans-4-{(2R,5S)-2-[8-amino-1-(2-fluoro-4-{[4-(trifluoromethyl)pyridin-2-yl]carbamoyl}phenyl)imidazo [1,5-a]pyrazin-3-yl]-5-methylmorpholin-4-yl}-1-methylcyclohexanecarboxylic acid] are 0.00056 µM and 2.84 µM.
On to `C[C@H]1CO[C@@H](c2nc(-c3ccc(C(=O)Nc4cc(C(F)(F)F)ccn4)cc3F)c3c(N)nccn23)CN1[C@H]1CC[C@@](C)(C(=O)O)CC1` [Example 194, cis-4-{(2R,5S)-2-[8-amino-1-(2-fluoro-4-{[4-(trifluoromethyl)pyridin-2-yl]carbamoyl}phenyl)imidazo [1,5-a]pyrazin-3-yl]-5-methylmorpholin-4-yl}-1-methylcyclohexanecarboxylic acid], for which the IC50 was 0.0017 µM in experiment [1] and 4.04 µM in the experiment on HeLa cells.
In the same order, the values of `C[C@]1(C(=O)O)CC[C@H](N2CCO[C@@H](c3nc(-c4ccc(C(=O)Nc5cc(C(F)F)ccn5)cc4)c4c(N)ncc(Cl)n34)C2)CC1` [Example 195, trans-4-{(2R)-2-[8-amino-5-chloro-1-(4-{[4-(difluoromethyl)pyridin-2-yl]carbamoyl}phenyl)imidazo [1,5-a]pyrazin-3-yl]morpholin-4-yl}-1-methylcyclohexanecarboxylic acid] are 0.001 µM and 2.44 µM.
As to `C[C@]1(C(=O)O)CC[C@H](N2CCO[C@@H](c3nc(-c4ccc(C(=O)Nc5cc(C6CC6)ccn5)cc4F)c4c(N)nccn34)C2)CC1` [Example 197, trans-4-[(2R)-2-(8-amino-1-{4-[(4-cyclopropylpyridin-2-yl)carbamoyl]-2-fluorophenyl}imidazo[1,5-a]pyrazin-3-yl)morpholin-4-yl]-1-methylcyclohexanecarboxylic acid], the IC50 was determined as 0.0012 µM in experiment [1] and 2.95 µM in the experiment with HeLa cells.
The corresponding values for `C[C@]1(C(=O)O)CC[C@@H](N2CCO[C@@H](c3nc(-c4ccc(C(=O)Nc5cc(C6CC6)ccn5)cc4F)c4c(N)nccn34)C2)CC1` [Example 198, cis-4-[(2R)-2-(8-amino-1-{4-[(4-cyclopropylpyridin-2-yl)carbamoyl]-2-fluorophenyl}imidazo[1,5-a]pyrazin-3-yl)morpholin-4-yl]-1-methylcyclohexanecarboxylic acid] are 0.0105 µM and 2.03 µM.
Consider `Cc1cnc(N)c2c(-c3ccc(C(=O)Nc4ccccn4)cc3)nc([C@H]3CN([C@H]4CC[C@](C)(C(=O)O)CC4)CCO3)n12` [Example 199, trans-4-[(2R)-2-{8-amino-5-methyl-1-[4-(pyridin-2-ylcarbamoyl)phenyl]imidazo [1,5-a]pyrazin-3-yl}morpholin-4-yl]-1-methylcyclohexanecarboxylic acid], for which the IC50 was determined as 0.0059 µM in experiment [1] and 2.02 µM with HeLa cells.
In the same order, the values of `C[C@H]1CO[C@@H](c2nc(-c3ccc(C(=O)Nc4cc(C(F)(F)F)ccn4)cc3F)c3c(N)ncc(Cl)n23)CN1[C@H]1CC[C@](C)(C(=O)O)CC1` [Example 200, trans-4-{(2R,5S)-2-[8-amino-5-chloro-1-(2-fluoro-4-{[4-(trifluoromethyl)pyridin-2-yl]carbamoyl}phenyl)imidazo [1,5-a]pyrazin-3-yl]-5-methylmorpholin-4-yl}-1-methylcyclohexanecarboxylic acid] are 0.00042 µM and 1.69 µM.
The corresponding values for `C[C@H]1CO[C@@H](c2nc(-c3ccc(C(=O)Nc4cc(C(F)(F)F)ccn4)cc3F)c3c(N)ncc(Cl)n23)CN1[C@H]1CC[C@@](C)(C(=O)O)CC1` [Example 201, cis-4-{(2R,5S)-2-[8-amino-5-chloro-1-(2-fluoro-4-{[4-(trifluoromethyl)pyridin-2-yl]carbamoyl}phenyl)imidazo [1,5-a]pyrazin-3-yl]-5-methylmorpholin-4-yl}-1-methylcyclohexanecarboxylic acid] are 0.0017 µM and 4.06 µM.
The corresponding values for `CC(C)[C@@]1(C(=O)O)CC[C@@H](N2C[C@H](c3nc(-c4ccc(C(=O)Nc5cc(C(F)(F)F)ccn5)cc4F)c4c(N)ncc(Cl)n34)OC[C@@H]2C)C1` [Example 202, (1R,3R)-3-{(2R,5S)-2-[8-amino-5-chloro-1-(2-fluoro-4-{[4-(trifluoromethyl)pyridin-2-yl]carbamoyl}phenyl)imidazo [1,5-a]pyrazin-3-yl]-5-methylmorpholin-4-yl}-1-(1-methylethyl) cyclopentanecarboxylic acid] are 0.00076 µM and 4.58 µM.
Take `CC(C)[C@@]1(C(=O)O)CC[C@H](N2C[C@H](c3nc(-c4ccc(C(=O)Nc5cc(C(F)(F)F)ccn5)cc4F)c4c(N)ncc(Cl)n34)OC[C@@H]2C)C1` [Example 203, (1R,3S)-3-{(2R,5S)-2-[8-amino-5-chloro-1-(2-fluoro-4-{[4-(trifluoromethyl)pyridin-2-yl]carbamoyl}phenyl)imidazo [1,5-a]pyrazin-3-yl]-5-methylmorpholin-4-yl}-1-(1-methylethyl) cyclopentanecarboxylic acid]: the IC50 in experiment [1] turned out to be 0.0019 µM; in the experiment on HeLa cells, 0.891 µM.
In the same order, the values of `C[C@]1(C(=O)O)CC[C@H](N2CCO[C@@H](c3nc(-c4ccc(C(=O)Nc5ccccn5)cc4)c4c(N)ncc(Cl)n34)C2)CC1` [Example 204, trans-4-[(2R)-2-{8-amino-5-chloro-1-[4-(pyridin-2-ylcarbamoyl)phenyl]imidazo [1,5-a]pyrazin-3-yl}morpholin-4-yl]-1-methylcyclohexanecarboxylic acid] are 0.0038 µM and 3.87 µM.
